Reference: patent US9682938B2, “Pyrazolone derivatives as nitroxyl donors” (Cardioxyl Pharmaceuticals, Inc., priority 2014, dated 2017)

Assays:
Format in all cases: in vitro ADME
[1] = In vitro plasma stability, dog plasma; details: male, pH 7.4, 5 μM, 37° C., sampling 0-360 minutes, read-out: T1/2 Dog
Description: (§1) Certain compounds from Table 1 were tested for their stability in plasma. The assay system comprised plasma from rat, dog or human (at least 3 donors, male, pooled) at pH 7.4, and (ii) an anticoagulant (sodium heparin or sodium citrate). Each test compound (5 μM) was incubated in plasma at 37° C. on a THERMOMIXER® with shaking. Three samples (n=3) were taken at each of seven sampling time points: 0, 10, 30, 60, 90, 180 and 360 minutes. The samples were immediately combined with 3 volumes (i.e., 3 times the volume of plasma) of acetonitrile containing 1% formic acid and an internal standard to terminate the reaction. AB SCIEX API 3000 LC-MS/MS analysis of the test compounds was performed without a standard curve. Plasma half-lives (T1/2) of the test compounds were determined from graphs of the percent remaining values using the peak area response ratio.

[2] = In vitro plasma stability, rat plasma; details: male, pH 7.4, 5 μM, 37° C., sampling 0-360 minutes, read-out: T1/2 Rat
Description: as §1

[3] = In vitro plasma stability, human plasma; details: male, pH 7.4, 5 μM, 37° C., sampling 0-360 minutes, read-out: T1/2 Human
Description: as §1

half-life at 5 μM [1] [min]	half-life at 5 μM [2] [min]	half-life at 5 μM [3] [min]	Structure (SMILES)
24	36	41	CN1N=C(c2ccccc2[S+](C)[O-])C(C)(NO)C1=O (stereo not drawn) [Compound 21, 4-(hydroxyamino)-2,4-dimethyl-5-(2-(methylsulfinyl)phenyl)-2,4-dihydro-3H-pyrazol-3-one]
49	85	49	Cc1cc(C2=NN(C)C(=O)C2(C)NO)cc(C)c1S(C)(=O)=O (stereo not drawn) [Compound 79, 4-(Hydroxyamino)-3-(4-methanesulfonyl-3,5-dimethylphenyl)-1,4-dimethyl-4,5-dihydro-1H-pyrazol-5-one]
12	62	11	CCOC1=NN(c2ccccc2)C(=O)C1(NO)/C(C)=N/OC (stereo not drawn) [Compound 110, 3-Ethoxy-4-(hydroxyamino)-4-[1-(methoxyimino)ethyl]-1-phenyl-4,5-dihydro-1H-pyrazol-5-one]
32	66	35	CN1N=C(c2ccc(S(C)(=O)=O)c(N3CCNCC3)c2)C(C)(NO)C1=O (stereo not drawn) [Compound 93, 4-(Hydroxyamino)-3-[4-methanesulfonyl-3-(piperazin-1-yl)phenyl]-1,4-dimethyl-4,5-dihydro-1H-pyrazol-5-one]
4	8	2	CO/N=C(\C)C1(NO)C(=O)N(C)N=C1c1ccc(S(=O)(=O)N(C)C)cc1 (stereo not drawn) [Compound 121, 4-[4-(Hydroxyamino)-4-[1-(methoxyimino)ethyl]-1-methyl-5-oxo-4,5-dihydro-1H-pyrazol-3-yl]-N,N-dimethylbenzene-1-sulfonamide]
150	80	77	CN1N=C(c2ccc(OC(F)(F)F)cc2)C(C)(NO)C1=O (stereo not drawn) [Compound 59, 4-(hydroxyamino)-1,4-dimethyl-3-(4-(trifluoromethoxy)phenyl)-1-pyrazol-5(4H)-one]
28	20	18	CN1N=C(c2ccc(F)cc2Cl)C(C)(NO)C1=O (stereo not drawn) [Compound 12, 5-(2-chloro-4-fluorophenyl)-4-(hydroxyamino)-2,4-dimethyl-2,4-dihydro-3H-pyrazol-3-one]
4	4	6	CC1=NN(C)C(=O)C1(NO)/C(C)=N/OCC(C)C (stereo not drawn) [Compound 105, 4-(Hydroxyamino)-1,3-dimethyl-4-[1-[(2-methylpropoxy)imino]ethyl]-4,5-dihydro-1H-pyrazol-5-one]
13	18	14	COc1ccc(C2(NO)C(=O)N(C)N=C2C)cc1OC (stereo not drawn) [Compound 73, 4-(3,4-Dimethoxyphenyl)-4-(hydroxyamino)-1,3-dimethyl-4,5-dihydro-1H-pyrazol-5-one]
> 480	> 480	> 480	CCOC1=NN(c2ccccc2)C(=O)C1(C)NO (stereo not drawn) [Compound 127, 3-Ethoxy-4-(hydroxyamino)-4-methyl-1-phenyl-4,5-dihydro-1H-pyrazol-5-one]
24	23	29	CCOC1=NN(c2ccc(Br)cc2)C(=O)C1(NO)/C(C)=N/OC (stereo not drawn) [Compound 111, 1-(4-Bromophenyl)-3-ethoxy-4-(hydroxyamino)-4-[1-(methoxyimino)ethyl]-4,5-dihydro-1H-pyrazol-5-one]
39	88	65	CN1N=C(c2ccc([S+](C)[O-])cc2)C(C)(NO)C1=O (stereo not drawn) [Compound 11, 4-(hydroxyamino)-2,4-dimethyl-5-(4-(methylsulfinyl)phenyl)-2,4-dihydro-3H-pyrazol-3-one]
13	17	26	CO/N=C(\C)C1(NO)C(=O)N(c2ccccc2)N=C1C(C)(C)C (stereo not drawn) [Compound 18, 5-(tert-butyl)-4-(hydroxyamino)-4-(1-(methoxyimino)ethyl)-2-phenyl-2,4-dihydro-3H-pyrazol-3-one]
45	44	31	CN(C)C(=O)c1ccc(C2(NO)C(=O)N(C)N=C2C(C)(C)C)cc1 (stereo not drawn) [Compound 124, 4-[3-tert-Butyl-4-(hydroxyamino)-1-methyl-5-oxo-4,5-dihydro-1H-pyrazol-4-yl]-N,N-dimethylbenzamide]
42	65	49	CN1CCN(c2cc(C3=NN(C)C(=O)C3(C)NO)ccc2S(C)(=O)=O)CC1 (stereo not drawn) [Compound 88, 4-(Hydroxyamino)-3-[4-methanesulfonyl-3-(4-methylpiperazin-1-yl)phenyl]-1,4-dimethyl-4,5-dihydro-1H-pyrazol-5-one]
12	9	13	CN1N=C(c2ccc(S(C)(=O)=NC(=O)C(F)(F)F)cc2)C(C)(NO)C1=O (stereo not drawn) [Compound 72, 2,2,2-Trifluoro-N-({4-[4-(hydroxyamino)-1,4-dimethyl-5-oxo-4,5-dihydro-1H-pyrazol-3-yl]phenyl}(methyl)oxo-λ^6-sulfanylidene)acetamide]
65	42	45	CC(C)N1N=C(c2ccccc2F)C(C)(NO)C1=O (stereo not drawn) [Compound 26, 5-(2-fluorophenyl)-4-(hydroxyamino)-2-iso-propyl-4-methyl-2,4-dihydro-3H-pyrazol-3-one]
27	32	14	C/C(=N\OCc1ccccc1)C1(NO)C(=O)N(C)N=C1C(C)(C)C (stereo not drawn) [Compound 115, 4-[1-[(Benzyloxy)imino]ethyl]-3-tert-butyl-4-(hydroxyamino)-1-methyl-4,5-dihydro-1H-pyrazol-5-one]
23	19	21	CC1=NN(C)C(=O)C1(NO)c1ccc(F)cc1 (stereo not drawn) [Compound 27, 4-(4-fluorophenyl)-4-(hydroxyamino)-2,5-dimethyl-2,4-dihydro-3H-pyrazol-3-one]
42	49	25	CN1N=C(c2ccc(S(=O)(=O)N3CCC(F)(F)CC3)cc2)C(C)(NO)C1=O (stereo not drawn) [Compound 114, 3-{4-[(4,4-Difluoropiperidin-1-yl)sulfonyl]phenyl}-4-(hydroxyamino)-1,4-dimethyl-4,5-dihydro-1H-pyrazol-5-one]
42	63	47	CN1N=C(c2ccc(S(C)(=O)=O)c(N(C)C)c2)C(C)(NO)C1=O (stereo not drawn) [Compound 87, 3-[3-(Dimethylamino)-4-methanesulfonylphenyl]-4-(hydroxyamino)-1,4-dimethyl-4,5-dihydro-1H-pyrazol-5-one]
18	48	9	CO/N=C(\C)C1(NO)C(=O)N(c2ccccc2)N=C1OC (stereo not drawn) [Compound 116, 4-(Hydroxyamino)-3-methoxy-4-[1-(methoxyimino)ethyl]-1-phenyl-4,5-dihydro-1H-pyrazol-5-one]
117	34	104	Cc1cc(C)cc(C2=NN(C)C(=O)C2(C)NO)c1 (stereo not drawn) [Compound 7, 5-(3,5-dimethylphenyl)-4-(hydroxyamino)-2,4-dimethyl-2,4-dihydro-3H-pyrazol-3-one]
8	7	6	CCO/N=C(\C)C1(NO)C(=O)N(C)N=C1C (stereo not drawn) [Compound 106, 4-[1-(Ethoxyimino)ethyl]-4-(hydroxyamino)-1,3-dimethyl-4,5-dihydro-1H-pyrazol-5-one]
32	23	25	CN1N=C(c2ccc(S(C)(=O)=O)c(C(F)(F)F)c2)C(C)(NO)C1=O (stereo not drawn) [Compound 97, 4-(Hydroxyamino)-3-[4-methanesulfonyl-3-(trifluoromethyl)phenyl]-1,4-dimethyl-4,5-dihydro-1H-pyrazol-5-one]
172	78	108	CN1N=C(c2ccc(F)cc2)C(C)(NO)C1=O (stereo not drawn) [Compound 5, 5-(4-fluorophenyl)-4-(hydroxyamino)-2,4-dimethyl-2,4-dihydro-3H-pyrazol-3-one]
39	61	47	CCS(=O)(=O)c1ccc(C2=NN(C)C(=O)C2(C)NO)cc1 (stereo not drawn) [Compound 86, 3-[4-(Ethanesulfonyl)phenyl]-4-(hydroxyamino)-1,4-dimethyl-4,5-dihydro-1H-pyrazol-5-one]
< 1	< 1	< 1	CC1=NN(C)C(=O)C1(NO)c1noc(-c2ccccc2)n1 (stereo not drawn) [Compound 132, 4-(Hydroxyamino)-1,3-dimethyl-4-(5-phenyl-1,2,4-oxadiazol-3-yl)-4,5-dihydro-1H-pyrazol-5-one]

Structure (SMILES)	half-life at 5 μM [1] [min]	half-life at 5 μM [2] [min]	half-life at 5 μM [3] [min]
C/C(=N\OC(C)(C)C)C1(NO)C(=O)N(C)N=C1C(C)(C)C (stereo not drawn) [Compound 117, 4-[1-[(tert-Butoxy)imino]ethyl]-3-tert-butyl-4-(hydroxyamino)-1-methyl-4,5-dihydro-1H-pyrazol-5-one]	34	36	16
